Reference: ChEMBL document CHEMBL1141468, “Photoactivated enediynes as targeted antitumoral agents: efficient routes to antibody and gold nanoparticle conjugates” (Bioorg Med Chem Lett, 2008)

Assay: Radiation-induced photodegradation in […] X174 Rf1 DNA assessed as conversion of type 2 DNA at 1 uM after 3 hrs

O=C(O)CCOCCOCCOCCOCCOCCOCCOCCOCCOCCOCCOCCOCCOCCC(=O)OCc1ccc(C#Cc2ccccc2C#Cc2ccccc2)cc1
Activity: 24%
